molecular target: PCP receptor; experiment: [3H]TCP radioreceptor assay (binding to PCP recognition sites); design: species or system rat (male Sprague-Dawley, whole brain); conditions: [3H]TCP approx. 1 nM, rat brain membranes; mean of at least two determinations
Experimental: [^3 H]TCP Radioreceptor Assay
[^3 H]TCP binding to PCP recognition sites was performed as described by Vignon et al. Brain Research 1983, 280, 194-197. Male Sprague-Dawley rats were sacrificed by decapitation, and whole brains were homogenized in 10 volumes (wt/vol) of cold Tris-HCl buffer (50 mM, pH 7.7) using a Brinkmann Polytron (setting 6, 30 sec). The homogenate was centrifuged at 40,000×g for 10 min at 4° C. The supernatant was decanted, and the homogenization and centrifugation steps were repeated twice as described above. Following this, the pellet was resuspended in Tris-HCl (5 mM, pH 7.7) at a tissue concentration of 0.5-0.75 g/mL, and one mL aliquots were frozen at -70° C. until use. The binding characteristics for PCP recognition sites were not altered by the freezing of membrane suspensions.
On the day of the assay, membrane aliquots were thawed, resuspended in fresh 5 mM Tris-HCl buffer at a tissue concentration of 1 mg/mL, and stored on ice until use. Each assay tube contained 100 μl of [^3 H]TCP at a final concentration of approximately 1 nM, 100 μL of various concentrations of the compounds of interest, 500 μL of the tissue suspension and 300 μL of buffer to a final assay volume of 1 mL and a final protein concentration of 0.5 mg/tube. Non-specific binding was defined by addition of a final concentration of 100 μM PCP to blank tubes. All tubes were incubated at room temperature for 25 min before termination of the reaction by rapid filtration over Whatman GF/B glass fiber filters that had been presoaked in a solution of 0.5% polyethylenimine for at least 1 hr prior to use. Filters were washed with three 4 mL volumes of cold Tris buffer. Following addition of scintillation cocktail, the amount of bound radioactivity was determined by liquid scintillation spectrometry using a Beckman LS 5000TA liquid scintillation counter with an efficiency for tritium of approximately 55%. Inhibition constants (Ki values) were calculated using the EBDA/LIGAND program (McPherson, J. Pharmacol. Meth. 1985, 14, 213-228), purchased from ElsevierBiosoft, Inc. Results are reported as the Ki values (in nM) which are expressed as the mean of at least two separate determinations; or as a percent (%) inhibition of binding at 10 μM.

Row | Structure (SMILES) | Ki [µM]
1 | Oc1cccc2c1C1c3cccc[n+]3C2CC1(c1ccccc1)c1ccccc1 (stereo not drawn) [28(c), 6,11-ethano-12,12-diphenyl-10-hydroxy-6,11-dihydrobenzo[b]quinolizinium chloride] | 0.0117
2 | Fc1ccc(C2(c3ccc(F)cc3)CC3c4ccccc4C2c2cccc[n+]23)cc1 (stereo not drawn) [31(c), 6,11-ethano-12,12-di(p-fluorophenyl)-6,11-dihydrobenzo[b]-quinolizinium chloride] | 2.21
3 | CC(C)Oc1cccc2c1C1c3cccc[n+]3C2CC1(c1ccccc1)c1ccccc1 (stereo not drawn) [32(F), 6,11-ethano-12.12-diphenyl-10-isopropoxy-6,11-dihydrobenzo[b]quinoliziniumchloride] | 0.468
4 | Fc1cc(F)c2c(c1)C1CC(c3ccccc3)(c3ccccc3)C2c2cccc[n+]21 (stereo not drawn) [33(c), 6,11-ethanol-12,12-diphenyl-8,10-difluoro-6,11-dihydrobenzo[b]quinolizinium chloride 1/4 hydrate] | 1.14
5 | Oc1ccc2c(c1)C1c3cccc[n+]3C2CC1(c1ccccc1)c1ccccc1 (stereo not drawn) [34(b), 6,11-ethano-12,12-diphenyl-9-hydroxy-6,11-dihydrobenzo[b]quinolizinium chloride] | 0.0219
6 | COc1cccc(C2(c3cccc(OC)c3)CC3c4ccccc4C2c2cccc[n+]23)c1 (stereo not drawn) [35(c), 6,11-ethano-12,12-di(m-methoxyphenyl)-6,11-dihydrobenzo[b]quinolizinium chloride] | 0.041
7 | Brc1cccc(C2(c3cccc(Br)c3)CC3c4ccccc4C2c2cccc[n+]23)c1 (stereo not drawn) [36(c), 6,11-ethano-12,12-di(m-bromophenyl)-6,11-dihydrobenzo[b]quinolizinium chloride] | 0.185
8 | COc1cccc2c1C1c3cccc[n+]3C2(C)CC1(c1ccccc1)c1ccccc1 (stereo not drawn) [37(E), 6,11-ethano-12,12-diphenyl-10-methoxy-6-methyl-6,11-dihydrobenzo[b]quinolizinium chloride] | 0.0367
9 | CC12CC(c3ccccc3)(c3ccccc3)C(c3c(O)cccc31)c1cccc[n+]12 (stereo not drawn) [38(c), 6,11-ethano-12,12-diphenyl-10-hydroxy-6-methyl-6,11-dihydrobenzo[b]quinolizinium chloride] | 0.0166
10 | c1cncc(C2(c3cccnc3)CC3c4ccccc4C2c2cccc[n+]23)c1 (stereo not drawn) [42(E), 6,11-ethano-12,12-di(3-pyridyl)-6,11-dihydrobenzo[b]quinolizinium chloride] | 2.27
11 | COc1ccc(C2(c3ccc(OC)cc3)CC3c4ccccc4C2c2cccc[n+]23)cc1 (stereo not drawn) [44(b), 6,11-ethano-12,12-di(p-methoxyphenyl)-6,11-dihydrobenzo[b]quinolizinium hexafluorophosphate] | 28.1
12 | FC(F)(F)c1ccc2c(c1)C1c3cccc[n+]3C2CC1(c1ccccc1)c1ccccc1 (stereo not drawn) [45(E), 6,11-ethano-12,12-diphenyl-9-trifluoromethyl-6,11-dihydrobenzo[b]quinolizinium chloride 1/4 hydrate] | 0.491

same assay, conditions: inhibition of [3H]TCP binding at 10 μM

Row | Structure (SMILES) | [3H]TCP percent inhibition @ 10 μm [%]
13 | COc1ccc(CN(c2ccc(C3(c4ccc(N(Cc5ccc(OC)cc5)S(C)(=O)=O)cc4)CC4c5ccccc5C3c3cccc[n+]34)cc2)S(C)(=O)=O)cc1 (stereo not drawn) [29(c), 6,11-ethano-12,12-di[4-(N-p-methoxybenzyl-N-methylsulfonylamino)phenyl]-6,11-dihydrobenzo[b]quinolizinium perchlorate 1/2 ethyl acetate] | 31
14 | Cc1ccc(C2(c3ccc(C)cc3)CC3c4ccccc4C2c2cccc[n+]23)cc1.[Cl-] (stereo not drawn) [30(c), 6,11-ethano-12,12-di-(p-methylphenyl)-6,11-dihydrobenzo[b]quinolizinium chloride] | 22
15 | Clc1ccc(C2(c3ccc(Cl)cc3)CC3c4ccccc4C2c2cccc[n+]23)cc1.F[P-](F)(F)(F)(F)F (stereo not drawn) [43(b), 6,11-ethano-12,12-di(p-chlorophenyl)-6,11-dihydrobenzo[b]quinolizinium hexafluorophosphate] | 45

Reference: patent publication US5554620A, “Substituted 6,11-ethano-6,11-dihydrobenzo[b] quinolizinium salts and compositions and methods of use thereof” (Sterling Winthrop Inc., priority 1994, dated 1996)
